Tests used:
Type in all cases: in vivo
rice (Oryra sativa) = assay: Test B flooded paddy test; settings: Flood, 0 to 100 scale where 0 is no effect and 100 is complete control, 13 to 15 d
Experimental: (§1) Plant species in the flooded paddy test selected from rice (Oryra sativa), sedge, umbrella (small-flower umbrella sedge, Cyperus difformis), ducksalad (Heteranthera limosa), and barnyardgrass (Echinochloa crus-galli) were grown to the 2-leaf stage for testing. At time of treatment, test pots were flooded to 3 cm above the soil surface, treated by application of test compounds directly to the paddy water, and then maintained at that water depth for the duration of the test. Treated plants and controls were maintained in a greenhouse for 13 to 15 d, after which time all species were compared to controls and visually evaluated. Plant response ratings, summarized in Table B, are based on a scale of 0 to 100 where 0 is no effect and 100 is complete control. A dash (-) response means no test result.

[1] = tested on: sedge, umbrella (small-flower umbrella sedge, Cyperus difformis); assay: Test B flooded paddy test; settings: Flood, 0 to 100 scale where 0 is no effect and 100 is complete control, 13 to 15 d
Experimental: as §1

[2] = tested on: ducksalad (Heteranthera limosa); assay: Test B flooded paddy test; settings: Flood, 0 to 100 scale where 0 is no effect and 100 is complete control, 13 to 15 d
Experimental: as §1

[3] = tested on: barnyardgrass (Echinochloa crus-galli); assay: Test B flooded paddy test; settings: Flood, 0 to 100 scale where 0 is no effect and 100 is complete control, 13 to 15 d
Experimental: as §1

[4] = tested on: ragweed (common ragweed, Ambrosia elatior); assay: Test A preemergence; settings: for Plant response rating, Ragweed: 125 g ai/ha
Description: (§2) Seeds of plant species selected from barnyardgrass (Echinochloa crus-galli), Kochia (Kochia scoparia), ragweed (common ragweed, Ambrosia elatior), ryegrass, Italian (Italian ryegrass, Lolium multiflorum), crabgrass, large (Digitaria sanguinalis), giant foxtail (Setaria faberii), green foxtail (Setaria viridis), morningglory (Ipomoea spp.), pigweed (Amaranthus retroflexus), velvetleaf (Abutilon theophrasti), wheat (Triticum aestivum), and corn (Zea mays) were planted into a blend of loam soil and sand and treated preemergence with a directed soil spray using test chemicals formulated in anon-phytotoxic solvent mixture which included a surfactant.
(§3) At the same time, plants selected from these crop and weed species and also blackgrass (Alopecurus myosuroides), and Galium (catchweed bedstraw, Galium aparine) were planted in pots containing the same blend of loam soil and sand and treated with postemergence applications of test chemicals formulated in the same manner. Plants ranged in height from 2 to 10 cm and were in the one- to two-leaf stage for the postemergence treatment. Treated plants and untreated controls were maintained in a greenhouse for approximately 10 d, after which time all treated plants were compared to untreated controls and visually evaluated for injury. Plant response ratings, summarized in Table A, are based on a 0 to 100 scale where 0 is no effect and 100 is complete control. A dash (-) response means no test result.

[5] = tested on: ryegrass, Italian (Italian ryegrass, Lolium multiflorum); assay: Test A preemergence; settings: for Plant response rating, Ryegrass, Italian: 125 g ai/ha
Description: as §2, §3

Kochia (Kochia scoparia) [6] = assay: Test A preemergence; settings: for Plant response rating, Kochia: 125 g ai/ha
Description: as §2, §3

[7] = tested on: pigweed (Amaranthus retroflexus); assay: Test A preemergence; settings: for Plant response rating, Pigweed: 125 g ai/ha
Description: as §2, §3

[8] = tested on: giant foxtail (Setaria faberii); assay: Test A preemergence; settings: for Plant response rating, Foxtail, Giant: 125 g ai/ha
Description: as §2, §3

[9] = tested on: barnyardgrass (Echinochloa crus-galli); assay: Test A preemergence; settings: for Plant response rating, Barnyardgrass: 125 g ai/ha
Description: as §2, §3

[10] = tested on: ragweed (common ragweed, Ambrosia elatior); assay: Test A postemergence; settings: for Ragweed plant response rating: 125 g ai/ha, visual injury rating on 0 to 100 scale (0 no effect, 100 complete control), approx. 10 d; for Plant response rating, Ragweed: 500 g ai/ha
Description: as §2, §3

[11] = tested on: Galium (catchweed bedstraw, Galium aparine); assay: Test A postemergence; settings: for Galium plant response rating: 125 g ai/ha, visual injury rating on 0 to 100 scale (0 no effect, 100 complete control), approx. 10 d; for Plant response rating, Galium: 500 g ai/ha
Description: as §2, §3

[12] = tested on: ryegrass, Italian (Italian ryegrass, Lolium multiflorum); assay: Test A postemergence; settings: for Ryegrass, Italian plant response rating: 125 g ai/ha, visual injury rating on 0 to 100 scale (0 no effect, 100 complete control), approx. 10 d; for Plant response rating, Ryegrass, Italian: 500 g ai/ha
Description: as §2, §3

[13] = tested on: blackgrass (Alopecurus myosuroides); assay: Test A postemergence
Description: as §2, §3

Kochia (Kochia scoparia) [14] = assay: Test A postemergence; settings: for Kochia plant response rating: 125 g ai/ha, visual injury rating on 0 to 100 scale (0 no effect, 100 complete control), approx. 10 d; for Plant response rating, Kochia: 500 g ai/ha
Description: as §2, §3

[15] = tested on: pigweed (Amaranthus retroflexus); assay: Test A postemergence; settings: for Pigweed plant response rating: 125 g ai/ha, visual injury rating on 0 to 100 scale (0 no effect, 100 complete control), approx. 10 d; for Plant response rating, Pigweed: 500 g ai/ha
Description: as §2, §3

[16] = tested on: wheat (Triticum aestivum); assay: Test A postemergence; settings: for Wheat plant response rating: 125 g ai/ha, visual injury rating on 0 to 100 scale (0 no effect, 100 complete control), approx. 10 d; for Plant response rating, Wheat: 500 g ai/ha
Description: as §2, §3

[17] = tested on: giant foxtail (Setaria faberii); assay: Test A postemergence; settings: for Foxtail, Giant plant response rating: 125 g ai/ha, visual injury rating on 0 to 100 scale (0 no effect, 100 complete control), approx. 10 d; for Plant response rating, Foxtail, Giant: 500 g ai/ha
Description: as §2, §3

corn (Zea mays) = assay: Test A postemergence; settings: for Corn plant response rating: 125 g ai/ha, visual injury rating on 0 to 100 scale (0 no effect, 100 complete control), approx. 10 d; for Plant response rating, Corn: 500 g ai/ha
Description: as §2, §3

[18] = tested on: barnyardgrass (Echinochloa crus-galli); assay: Test A postemergence
Description: as §2, §3

[19] = preemergence, 0 to 100 scale (0 no effect, 100 complete control)
[20] = Preemergence, 500 g ai/ha, 0 is no effect, 100 is complete control
[21] = postemergence, 0 to 100 scale, 0 no effect, 100 complete control
[22] = 500 g ai/ha, postemergence, 0 to 100 scale, 0 no effect, 100 complete control
[23] = Postemergence, 125 g ai/ha, visual injury, 0 to 100 scale (0 no effect, 100 complete control), approx. 10 d
[24] = Preemergence, visual injury after approximately 10 d, 0 to 100 scale where 0 is no effect and 100 is complete control
[25] = Preemergence, 500 g ai/ha, visual injury approx. 10 d
[26] = Postemergence, 0 to 100 scale where 0 is no effect and 100 is complete control
[27] = 125 g ai/ha, postemergence, visual injury rating on 0 to 100 scale (0 no effect, 100 complete control), approx. 10 d
[28] = Postemergence, 500 g ai/ha, 0 to 100 scale where 0 is no effect and 100 is complete control

O=C1NCC(c2cccc(OCC(F)F)c2)C1C(=O)Nc1ccccc1F (racemic) [Compound 387]
75: Plant response rating, Ducksalad ([2]; 500 g ai/ha)
70: Plant response rating, Foxtail, Giant [8, 19] | Plant response rating, Barnyardgrass [9, 19] | Plant response rating, Foxtail, Giant [17, 21] | Plant response rating, Barnyardgrass [18, 22] | Plant response rating, Barnyardgrass [18, 23]
80: Barnyardgrass plant response rating (0 to 100 scale) [9, 20]
90: Foxtail, Giant plant response rating (0 to 100 scale) [8, 20]
20: Plant response rating, Rice (rice (Oryra sativa); 500 g ai/ha)
0: Plant response rating, Sedge, Umbrella ([1]; 500 g ai/ha) | Plant response rating, Ragweed [4, 19] | Ragweed plant response rating (0 to 100 scale) [4, 20] | Plant response rating, Ryegrass, Italian [5, 19] | Ryegrass, Italian plant response rating (0 to 100 scale) [5, 20] | Plant response rating, Kochia (Kochia (Kochia scoparia) [6]; [19]) | Kochia plant response rating (0 to 100 scale) (Kochia (Kochia scoparia) [6]; [20]) | Plant response rating, Pigweed [7, 19] | Pigweed plant response rating (0 to 100 scale) [7, 20] | Ragweed plant response rating ([10]; postemergence) | Plant response rating, Ragweed [10, 21] | Galium plant response rating ([11]; postemergence) | Plant response rating, Galium [11, 21] | Ryegrass, Italian plant response rating ([12]; postemergence) | Plant response rating, Ryegrass, Italian [12, 21] | Plant response rating, Blackgrass [13, 23] | Kochia plant response rating (Kochia (Kochia scoparia) [14]; postemergence) | Plant response rating, Kochia (Kochia (Kochia scoparia) [14]; [21]) | Pigweed plant response rating ([15]; postemergence) | Plant response rating, Pigweed [15, 21] | Wheat plant response rating ([16]; postemergence) | Plant response rating, Wheat [16, 21] | Corn plant response rating (corn (Zea mays); postemergence) | Plant response rating, Corn (corn (Zea mays); [21])
50: Plant response rating, Barnyardgrass ([3]; 500 g ai/ha) | Plant response rating, Blackgrass [13, 22] | Foxtail, Giant plant response rating ([17]; postemergence)

Cc1ccc(C2CNC(=O)C2C(=O)Nc2ccccc2S(C)(=O)=O)c(F)c1 (racemic) [Compound 507]
60: Plant response rating, Barnyardgrass [18, 28]
70: Kochia plant response rating (0 to 100 scale, 0 is no effect, 100 is complete control) (Kochia (Kochia scoparia) [6]; [25]) | Plant response rating, Kochia (Kochia (Kochia scoparia) [14]; [26])
30: Kochia plant response rating (Kochia (Kochia scoparia) [14]; postemergence)
20: Pigweed plant response rating (0 to 100 scale, 0 is no effect, 100 is complete control) [7, 25] | Plant response rating, Ragweed [10, 26] | Plant response rating, Galium [11, 26] | Plant response rating, Foxtail, Giant [17, 26] | Barnyardgrass plant response rating [18, 27]
50: Foxtail, Giant plant response rating (0 to 100 scale, 0 is no effect, 100 is complete control) [8, 25]
75: Plant response rating, Ducksalad ([2]; 250 g ai/ha)
0: Plant response rating, Rice (rice (Oryra sativa); 250 g ai/ha) | Plant response rating, Sedge, Umbrella ([1]; 250 g ai/ha) | Plant response rating, Barnyardgrass ([3]; 250 g ai/ha) | Plant response rating, Ragweed [4, 24] | Ragweed plant response rating (0 to 100 scale, 0 is no effect, 100 is complete control) [4, 25] | Plant response rating, Ryegrass, Italian [5, 24] | Ryegrass, Italian plant response rating (0 to 100 scale, 0 is no effect, 100 is complete control) [5, 25] | Plant response rating, Kochia (Kochia (Kochia scoparia) [6]; [24]) | Plant response rating, Pigweed [7, 24] | Plant response rating, Foxtail, Giant [8, 24] | Ragweed plant response rating ([10]; postemergence) | Galium plant response rating ([11]; postemergence) | Ryegrass, Italian plant response rating ([12]; postemergence) | Plant response rating, Ryegrass, Italian [12, 26] | Blackgrass plant response rating [13, 27] | Plant response rating, Blackgrass [13, 28] | Pigweed plant response rating ([15]; postemergence) | Plant response rating, Pigweed [15, 26] | Wheat plant response rating ([16]; postemergence) | Plant response rating, Wheat [16, 26] | Foxtail, Giant plant response rating ([17]; postemergence) | Corn plant response rating (corn (Zea mays); postemergence) | Plant response rating, Corn (corn (Zea mays); [26])
80: Barnyardgrass plant response rating (0 to 100 scale, 0 is no effect, 100 is complete control) [9, 25]
40: Plant response rating, Barnyardgrass [9, 24]

From patent US12077503B2, “Substituted cyclic amides and their use as herbicides” (FMC CORPORATION, priority 2015, dated 2024)
